# Experimental data: US11999727B2 (Tango Therapeutics, Inc., priority 2020, dated 2024)
# pIC50: −log10 of the molar value.
# Assays:
# PRMT5 [1] = target: T1, PRMT5 (Homo sapiens, UniProt O14744); test: PRMT5 biochemical IC50 assay with SAM as cofactor; settings: PRMT5, SAM as cofactor; read-out: SAM IC50
# T1 construct: purchased Viva (custom protein)
# PRMT5 [2] = target: T1, PRMT5; test: PRMT5 biochemical IC50 assay with no cofactor; settings: PRMT5, no cofactor
# Text: Table 1 indicates IC50 values (μM) against PRMT5 for exemplary compounds in the presence of SAM as cofactor, with no cofactor, and with MTA as cofactor, respectively (columns 4-6). […] Ki values can be calculated from the IC50 values as described in the Examples section. As detailed in the Examples section, for the assay performed in the presence of SAM, IC50=Ki×1.5 (Ki=IC50/1.5).
# PRMT5 [3] = target: T1, PRMT5; test: PRMT5 biochemical IC50 assay with MTA as cofactor; settings: PRMT5, MTA as cofactor; read-out: MTA IC50
# [4] = system: HAP1 MTAP-intact cell line; test: SDMA in-cell western assay, HAP1 MTAP-intact; type: cell-based; settings: Homo sapiens, HAP1, SDMA in-cell western, HAP1 MTAP-intact; read-out: MTAP HAP1 intact IC50
# In short: (§1)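 MTAP-null vs endogenous-MTAP HAP1 isogenic cells; in-cell western SDMA readout; IC50 per line.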
# [5] = system: HAP1 MTAP-deleted cell line; test: SDMA in-cell western assay, HAP1 MTAP-deleted; type: cell-based; settings: for pIC50: Homo sapiens, HAP1, SDMA in-cell western, HAP1 MTAP-deleted; for MTAP intact/deleted ratio: IC50 ratio HAP1 MTAP-intact / HAP1 MTAP-deleted, SDMA in-cell western
# In short: as §1
# [6] = system: HAP1 MTAP-deleted cell line; test: Viability assay, MTAP-deleted cell line; type: cell-based; settings: Homo sapiens, read-out: HAP1 MTAP deleted viability
# Text: Table 1 additionally indicates IC50 values in a viability assay for the MTAP-deleted cell line (column 10), indicating the effect of treatment with compound on cell survival.
# [7] = read-out: HAP 1 MTAP deleted IC50
# [8] = HAP1, viability IC50, MTAP-deleted cell line
# [9] = read-out: HAP1 MTAP deleted IC50
# [10] = HAP1, viability assay, MTAP-deleted cell line
# [11] = read-out: No Cofactor/ rel IC50
# T1 sequence (O14744 whole entry): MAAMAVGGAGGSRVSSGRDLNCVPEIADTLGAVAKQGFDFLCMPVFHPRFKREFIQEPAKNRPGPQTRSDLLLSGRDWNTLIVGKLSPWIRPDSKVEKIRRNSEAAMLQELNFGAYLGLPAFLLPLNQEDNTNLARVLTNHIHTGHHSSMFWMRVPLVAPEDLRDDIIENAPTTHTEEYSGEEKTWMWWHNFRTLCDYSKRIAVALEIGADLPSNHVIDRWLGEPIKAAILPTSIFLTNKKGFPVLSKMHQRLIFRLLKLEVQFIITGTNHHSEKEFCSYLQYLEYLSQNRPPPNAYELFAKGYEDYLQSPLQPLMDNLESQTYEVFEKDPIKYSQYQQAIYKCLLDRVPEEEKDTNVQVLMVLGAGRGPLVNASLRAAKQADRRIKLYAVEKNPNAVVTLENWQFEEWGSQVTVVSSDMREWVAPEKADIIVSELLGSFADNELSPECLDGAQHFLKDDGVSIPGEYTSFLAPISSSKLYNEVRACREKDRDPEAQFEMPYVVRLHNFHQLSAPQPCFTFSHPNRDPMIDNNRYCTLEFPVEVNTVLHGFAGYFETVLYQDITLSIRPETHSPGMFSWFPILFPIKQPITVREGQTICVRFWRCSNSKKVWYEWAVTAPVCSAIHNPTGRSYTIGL
# T1 sequence (Q9BQA1 whole entry partner): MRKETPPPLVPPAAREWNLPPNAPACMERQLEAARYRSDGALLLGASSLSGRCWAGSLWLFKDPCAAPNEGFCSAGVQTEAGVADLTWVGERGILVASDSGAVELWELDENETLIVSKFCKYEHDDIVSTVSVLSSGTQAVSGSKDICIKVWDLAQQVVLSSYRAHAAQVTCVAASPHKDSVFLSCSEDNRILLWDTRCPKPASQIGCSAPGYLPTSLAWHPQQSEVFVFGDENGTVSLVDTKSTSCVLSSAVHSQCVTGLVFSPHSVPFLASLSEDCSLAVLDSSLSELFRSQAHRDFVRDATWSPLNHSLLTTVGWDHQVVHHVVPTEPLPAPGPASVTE
compound,measurement,setting,value
"Cc1cc(NC(=O)C(=O)N2C[C@@H](C)CC[C@@H]2c2ccc(-c3cn[nH]c3)cc2)cnc1N (single isomer, unassigned) [Compound 629]",pIC50,PRMT5 [1],< 6.30
same,pIC50,PRMT5 [2]; read-out: No Cofactor/rel IC50,< 6.30
same,pIC50,PRMT5 [3],< 6.30
same,pIC50,[4],< 6.00
same,pIC50,[5]; [7],< 6.00
same,MTAP intact/deleted ratio,[5],B (an IC50 ratio greater than or equal to 3 fold but lower than 10 fold)
same,pIC50,[6]; [8],< 5.00
"Cc1cc(NC(=O)C(=O)N2CCCCC2C23CC(C(F)(F)F)(C2)C3)cnc1N (centres unmarked) [Compound 217, N-(6-amino-5-methyl-3-pyridyl)-2-oxo-2-[2-[3-(trifluoromethyl)-1-bicyclo[1.1.1]pentanyl]-1-piperidyl]acetamide]",pIC50,PRMT5 [1],6.30 to 7.30
same,pIC50,PRMT5 [2]; read-out: No Cofactor/rel IC50,< 6.30
same,pIC50,PRMT5 [3],6.30 to 7.30
same,pIC50,[4],< 6.00
same,pIC50,[5]; [9],< 6.00
same,MTAP intact/deleted ratio,[5],B (an IC50 ratio greater than or equal to 3 fold but lower than 10 fold)
same,pIC50,[6]; [10],< 5.00
"Cc1cc(NC(=O)C(=O)N2C[C@H](C)CC[C@H]2c2cccnc2)cnc1N (racemic) [Compound 146, N-(6-amino-5-methyl-3-pyridyl)-2-[(2S,5R)-5-methyl-2-(3-pyridyl)-1-piperidyl]-2-oxo-acetamide]",pIC50,PRMT5 [1],6.30 to 7.30
same,pIC50,PRMT5 [2]; [11],6.30 to 7.30
same,pIC50,PRMT5 [3],> 7.30
same,pIC50,[4],< 6.00
same,pIC50,[5]; [7],> 7.00
same,pIC50,[6]; [10],5.00 to 6.00
"Cc1cc(NC(=O)C(=O)N2CCCC[C@@H]2c2cccc(N(C)C)c2)cnc1N (single isomer, unassigned) [Compound 390]",pIC50,PRMT5 [1],6.30 to 7.30
same,pIC50,PRMT5 [2]; read-out: No Cofactor/rel IC50,< 6.30
same,pIC50,PRMT5 [3],6.30 to 7.30
same,pIC50,[4],< 6.00
same,pIC50,[5]; [9],< 6.00
same,MTAP intact/deleted ratio,[5],B (an IC50 ratio greater than or equal to 3 fold but lower than 10 fold)
same,pIC50,[6]; [10],< 5.00
"C[C@@H]1CCC[C@@H]2CN(C(=O)C(=O)Nc3cncc(C(N)=O)c3)CC[C@@H]21 (racemic) [Compound 536, 5-(2-(5-methyloctahydroisoquinolin-2(1H)-yl)-2-oxoacetamido)nicotinamide]",pIC50,PRMT5 [1],6.30 to 7.30
same,pIC50,PRMT5 [2]; read-out: No Cofactor/rel IC50,< 6.30
same,pIC50,PRMT5 [3],6.30 to 7.30
same,pIC50,[4],< 6.00
same,pIC50,[5]; [7],6.00 to 7.00
same,MTAP intact/deleted ratio,[5],A (an IC50 ratio greater than or equal to 10 fold)
same,pIC50,[6]; [8],< 5.00
"C[C@H]1CN(C(=O)C(=O)Nc2cncc(C(N)=O)c2)[C@H](c2ccccc2)CC1(F)F (single isomer, unassigned) [Compound 457]",pIC50,PRMT5 [1],6.30 to 7.30
same,pIC50,PRMT5 [2]; read-out: No Cofactor/rel IC50,6.30 to 7.30
same,pIC50,PRMT5 [3],> 7.30
same,pIC50,[4],< 6.00
same,pIC50,[5]; [9],> 7.00
same,MTAP intact/deleted ratio,[5],A (an IC50 ratio greater than or equal to 10 fold)
same,pIC50,[6]; [10],> 6.00
"C[C@H]1CC[C@H](c2ccc(F)c(F)c2)N(C(=O)C(=O)Nc2cncc(C(N)=O)c2)C1 (single isomer, unassigned) [Compound 475]",pIC50,PRMT5 [1],6.30 to 7.30
same,pIC50,PRMT5 [2]; read-out: No Cofactor/rel IC50,6.30 to 7.30
same,pIC50,PRMT5 [3],> 7.30
same,pIC50,[4],< 6.00
same,pIC50,[5]; [9],6.00 to 7.00
same,MTAP intact/deleted ratio,[5],A (an IC50 ratio greater than or equal to 10 fold)
same,pIC50,[6]; [10],5.00 to 6.00
"C[C@H]1CC[C@H](c2ccc3c(c2)CCN(C)C3)N(C(=O)C(=O)Nc2cnc(N)c(C3CC3)c2)C1 [Compound 1264, N-(6-Amino-5-cyclopropyl-3-pyridyl)-2-[(2R,5S)-5-methyl-2-(2-methyl-3,4-dihydro-1H-isoquinolin-6-yl)-1-piperidyl]-2-oxo-acetamide]",pIC50,PRMT5 [1],6.30 to 7.30
same,pIC50,PRMT5 [2]; [11],> 7.30
same,pIC50,PRMT5 [3],> 7.30
same,pIC50,[4],6.00 to 7.00
same,pIC50,[5]; [7],> 7.00
same,MTAP intact/deleted ratio,[5],A (an IC50 ratio greater than or equal to 10 fold)
same,pIC50,"[6]; HAP1, viability, HAP1 MTAP-deleted cell line",> 6.00
"C[C@H]1CC[C@H](C2CCCCC2)N(C(=O)C(=O)Nc2cncc(C(N)=O)c2)C1 (single isomer, unassigned) [Compound 117]",pIC50,PRMT5 [1],< 6.30
same,pIC50,PRMT5 [2]; [11],< 6.30
same,pIC50,PRMT5 [3],6.30 to 7.30
same,pIC50,[4],< 6.00
same,pIC50,[5]; [7],6.00 to 7.00
same,MTAP intact/deleted ratio,[5],A (an IC50 ratio greater than or equal to 10 fold)
same,pIC50,[6]; [10],< 5.00
